Assay results: US7361735B2, “LITAF binding site peptides and methods of using the same” (Trustees of Boston University, priority 2003, dated 2008)

Columns and labels:
wtTNFP (−991 to 1) = assay: Luciferase reporter assay, wild type full-length TNF-α promoter, THP-1; type: cell-based, human; details: 1 μg/ml peptide via Chariot or 100 ng/ml LPS, normalized by β-gal, peptide B compared with HA-stimulated cells
Procedure: (§1) FIGS. 6a and 6b are graphical representations of the transcriptional activity of a series of deletion constructs of TNF-α promoter DNA. FIG. 6a depicts the activity measured due to either the promoter wtTNFβ (−991 to 1) or mtTNFβ1 (−991 to 1Δ−515 to −511). pGL3-basic transfected cell as unstimulated control was used. After transfection of DNAs for 3 hrs, the cells were washed with PBS twice, and stimulated with 100 ng/ml LPS (E. coli) or transfected with Chariot/peptide complex of 1 μg/ml of either peptide A, B, C, or HA. Triplicate assays were performed. Values are normalized by β-gal production and graphed. FIG. 6b depicts the activity measured due to the promoter mtTNFβ2 (−550 to −487 plus TATA box) or mtTNFβ3 (−550 to −487Δ−515 to −511 plus TATA box). LPS or peptides as stimuli and controls were used at the same condition as described above.
(§2) The following series of hTNF-α promoter DNA fragments were subcloned (FIG. 1b) into the pGL3-Basic vector, which has a promoterless and enhancerless luciferase reporter gene, available from Pharmacia: 1. wtTNFP (−991 to 1) was generated by PCR with primer pairs: 5′-[…]-3′ (SEQ ID NO: 20′) and 5′-[…]-3′(SEQ ID NO: 21′). 2. mtTNFP1 (−991 to 1Δ−515 to −511). The first in-frame mutant hTNF-α promoter was generated by PCR with primer pairs, 5′-[…]-3′(SEQ ID NO: 20) and 5′-[…] (SEQ ID NO: 22). The second mutant DNA was generated by PCR with primer pairs, 5′-[…]-3′ (SEQ ID NO: 23) and 5′-[…]-3′ (SEQ ID NO: 21). Both first and second DNA fragments above were purified and diluted as template to 1 ng/reaction and finally amplified by PCR with primer pairs, 5′-[…]-3′ (SEQ ID NO: 20) and 5′-[…]-3′ (SEQ ID NO: 21). […]
(§3) THP-1 cells (5×10^6/well) were induced to maturation by addition of […] (Sigma) and incubated at 37° C., 5% CO2 for 20 hrs, washed with PBS twice, co-transfected with 1 μg DNAs by using Fugene 6 (Roche Molecular Biochemicals) for 3 hrs, washed with PBS, then individually transfected with Chariot/peptide complex of 1 μg/ml peptide A, B, C or HA or stimulated with 100 ng/ml LPS (E. coli) for 3 hrs, washed with PBS, incubated at 37° C., 5% CO2, overnight. […] Luciferase activity in the lysates was measured using a commercial kit (Luciferase Reporter Assay System, Promega) and normalized by β-gal assay in the same lysates as described (McClane et al., Hum. Gene Ther. 10:739-746, 1997).
(§4) To determine whether the short sequence CTCCC (−515 to −511) in the hTNF-a promoter is responsible for hLITAF binding activity, a series of hTNF-α promoter/reporter constructs were cloned (see FIG. 1b) and individually transiently transfected into THP-1 cells. […] TNF-α promoter activity was subsequently analyzed using the luciferase assay. […]

THP-1 cells = assay: ELISA of hTNF-α after Chariot delivery of peptide; type: cell-based, human; details: PMA-matured THP-1; Chariot/peptide 1, 10, 100 ng/ml or 1 μg/ml; 24 hours; ELISA of supernatant
Procedure: FIG. 5 is a graphical representation of the production of TNF-α in THP-1 cells after transfection of peptide A, B, C, or HA with Chariot as described herein. The concentration of active of TNF-α was induced by various concentrations of peptide and measured by duplicate ELISA tests at the same condition and graphed.
THP-1 cells were induced to maturation by addition of […] (Sigma) and incubated at 37° C., 5% CO2 for 20 hrs, then washed with PBS twice, and stimulated (delivered) with Chariot/peptide complex of various concentrations of either peptide A or B or C or HA in a 96-well plate at 2×10^4 cells/well as indicated in the text. After 24 hrs of incubation at 37° C., 5% CO2, culture supernatants were harvested, centrifuged at 1,500×g to remove cell debris, then TNF-α was measured by ELISA (ABRAXIS, Hatboro, Pa.) and quantified on a Model 680 Microplate Reader (BioRad).
Therefore, peptides A, B, and C, were synthesized based on the amino acid sequence of hLITAF. […] After pretreatment with PMA, peptides A, B, C, or HA were introduced into THP-1 cells using Chariot, as described herein, in concentrations of 1, 10, 100 ng/ml or 1 μg/ml. After 24 hours, culture supernatants were harvested and TNF-α was quantified by ELISA. […] In contrast, peptide B increased TNF-α secretion by as much as 2.4 fold over unstimulated levels.

[1] = test system: mtTNFP1 (−991 to 1Δ−515 to −511); assay: Luciferase reporter assay, full-length TNF-α promoter lacking CTCCC, THP-1; type: cell-based, human; details: 1 μg/ml peptide via Chariot or 100 ng/ml LPS, FIG. 6a
Procedure: as §1, §2, §3, §4

[2] = test system: mtTNFP2 (−550 to −487 plus TATA Box); assay: Luciferase reporter assay, short TNF-α promoter fragment with LITAF binding site, THP-1; type: cell-based, human; details: 1 μg/ml peptide via Chariot or 100 ng/ml LPS, in comparison with the HA control, FIG. 6b
Procedure: as §1, §2, §3, §4

COS-7 cells = assay: TUNEL analysis of DNA fragmentation of apoptotic cells; type: cell-based
Procedure: FIG. 8 depicts the TUNEL analysis of DNA fragmentation of apoptotic COS-7 cells in response to LPS. After LPS stimulation, cells were fixed in 4% methanol-free formaldehyde solution for 30 min at room temperature, then permeated with 0.1% Triton X-100 for 2 min at 4° C. After washing with PBS, the samples were stained according to the manufacturer's recommended protocol for TUNEL (Promega.). The fragmentation of apoptotic COS-7 cell nuclei was analyzed by fluorescence microscopy (panels g, f, or h). The corresponding field was also observed by standard phase contrast microscopy (panels a, b, or c).
Since the induction of LITAF follows the accumulation of p53 (FIG. 7a), the DNA fragmentation of apoptotic COS-7 cells after 4 hrs with LPS stimulation was investigated.

[3] = test system: COS-7 cells (wild-type p53); assay: Northern blot of LITAF transcript after LPS, COS-7; type: cell-based; details: LPS 500 ng/ml for 4 hrs
Procedure: (§5) FIGS. 7a and 7b show the analysis of the accumulation of p53 and induction of LITAF mRNA. […] 60 μg of crude cell lysate was loaded per lane and separated on an 8% SDS-PAGE, which were then transferred to Immobilon-P. The protein blots were probed individually with monoclonal antibodies specific for p53 (DO-1, Santa cruz) or with goat polyclonal antibodies for actin (C-11, Santa cruz). p53 proteins were expressed well in lanes 2 through 4. […] Cells were incubated with 100 or 500 ng/ml of LPS for 4 or 24 hrs. Total cellular RNA was purified by using the Oligotex mRNA Kit (Qiagen). mRNA was size-fractionated on a denaturing formaldehyde-agarose gel (1.1%) and transferred onto a Hybond-N^+ membrane (Amersham). These filters were hybridized with an γ-^32P ATP-labeled DNA probe and then autoradiographed with BIOMAX MR film (Kodak).
(§6) The accumulation of p53 after LPS stimulation was investigated.

[4] = test system: mtTNFβ1, promoter from −991 to 1 lacking the LITAF binding site; assay: Luciferase reporter assay, mutant TNF-α promoter lacking LITAF binding site, WTK-1; type: cell-based; details: WTK-1 cells; LPS stimulation
Source text: (§7) FIG. 10 is a graphical representation of the analysis of LITAF function in luciferase reporter constructs. The series of TNF-α promoter DNA fragments were subcloned into the pGL3 basic vector (Pharmacia), a promoterless and enhancerless luciferase reporter gene. One construct, named wtTNFβ, contained TNF-α promoter from −991 to 1. Another one, mtTNFβ1, was a mutant inserted with the promoter from −991 to 1, but lacking the LITAF binding site. WTK-1 cells (grown to 85% confluence) in a 6-well plate at 1.2×10^5 cells/well were co-transfected with 1 μg DNAs including pCMV-LITAF recombinant vector, pVMVβ-gal and pGL3 basic as control by Fugene 6 (Roche Molecular Biochemicals) for 3 hrs, washed with PBS twice, then individually stimulated with LPS or Chariot/peptide complex of 100 ng/ml peptide B (peptide fragment of LITAF representing aa 152-228) or HA as control for 3 hrs, washed with PBS, incubated at 37° C., 5% CO2, o/n. The β-galactosidase gene was included in all transfections. The cells were harvested and lysed approximately 12 hrs after transfection. The promoter activity from each lysate sample was measured using the luciferase reporter assay system (Promega) and normalized to β-gal expression in the same sample, as described in the methods section below.
(§8) The activation of TNF-α gene expression by LITAF was investigated. […]

[5] = test system: wtTNFβ, TNF-α promoter from −991 to 1; assay: Luciferase reporter assay, wild-type TNF-α promoter, WTK-1; type: cell-based; details: WTK-1 cells; normalized to β-gal; LITAF overexpressed alone without LPS stimulation
Source text: as §7, §8

[6] = test system: WTK-1 cells (p53-deficient cell line); assay: Northern blot of LITAF transcript after LPS, WTK-1; type: cell-based; details: WTK-1 p53-deficient cells
Procedure: as §5, §6

[7] = test system: COS-7 cells (wild-type p53); assay: Western blot of p53 accumulation after LPS; type: cell-based; details: LPS 500 ng/ml for 4 hrs
Procedure: as §5, §6

[8] = test system: mtTNFP3 (−550 to −487Δ−515 to −511 plus TATA Box); assay: Luciferase reporter assay, short TNF-α promoter fragment lacking LITAF binding site, THP-1; type: cell-based, human; details: 100 ng/ml LPS, FIG. 6b
Procedure: as §1, with “above. […]” for “above.”
as §4

Substance: SQTWREPGAAGSPFHL [peptide B]
- hTNF-α promoter activity (luciferase expression), wild type promoter (wtTNFP (−991 to 1)): ~2 fold
- TNF-α secretion over unstimulated levels (THP-1 cells): ≤ 2.4 fold
- promoter activity (luciferase), mutant TNF-α promoter lacking the CTCCC motif [1]: no appreciable induction
- expression of luciferase, shorter reporter plasmid containing the LITAF binding site [2]: 2.3 fold

Substance: LSSSFTPGGGSALVVS [peptide C]
- hTNF-α promoter activity (luciferase expression), wild type promoter (wtTNFP (−991 to 1)): did not result in any significant increase
- TNF-α secretion over unstimulated levels (THP-1 cells): did not induce any significant TNF-α secretion
- promoter activity (luciferase), mutant TNF-α promoter lacking the CTCCC motif [1]: no appreciable induction
- expression of luciferase, shorter reporter plasmid containing the LITAF binding site [2]: unable to activate

Substance: YPYDVPDYASL [HA, reference compound]
- TNF-α secretion over unstimulated levels (THP-1 cells): did not induce any significant TNF-α secretion

Substance: SYYTQPAPIPNNNPIT VQTVY (SYYTQPAPIPNNNPITVQTVY) [peptide A]
- hTNF-α promoter activity (luciferase expression), wild type promoter (wtTNFP (−991 to 1)): did not result in any significant increase
- TNF-α secretion over unstimulated levels (THP-1 cells): did not induce any significant TNF-α secretion
- promoter activity (luciferase), mutant TNF-α promoter lacking the CTCCC motif [1]: no appreciable induction
- expression of luciferase, shorter reporter plasmid containing the LITAF binding site [2]: unable to activate

Substance: Lipopolysaccharide [LPS]
- apoptosis (TUNEL) (COS-7 cells; 100 ng/ml of LPS): did not induce apoptosis
- TUNEL-positive (apoptotic) cells (COS-7 cells; 500 ng/ml LPS for at least 4 hrs): significantly increased
- hTNF-α promoter activity (luciferase expression), wild type promoter (wtTNFP (−991 to 1)): similarly activated
- LITAF transcript [3]: detected
- TNF-α promoter activity (luciferase), mutant promoter/reporter plasmid [4]: similarly activated
- TNF-α promoter activity (luciferase), wild-type promoter/reporter plasmid [5]: similarly activated
- LITAF transcription [6]: did not induce LITAF transcription
- inducible p53 protein [7]: detected
- activation of shorter reporter plasmid lacking the LITAF binding site [8]: activation not observed
- promoter activity (luciferase), mutant TNF-α promoter lacking the CTCCC motif [1]: similarly activated
- expression of luciferase, shorter reporter plasmid containing the LITAF binding site [2]: strongly dependent on the presence of the LITAF binding site
